Laboratory results taken from paper PMC5131886 (CPT: Pharmacometrics & Systems Pharmacology, 2016).
Several values for one entry are separate records, joined by “and”; a condition that tells them apart may be missing. Equal entries are not always repeated.

Columns and labels:
VEGFR = conditions: cited from earlier work
[1] = cited from earlier work
plasma protein = conditions: cited from earlier work
HCC tumors = test: Tumor volume by DCE-MRI in HCC patients; format: in vivo, human; conditions: duration of the trial, vs baseline
sVEGFR2 = test: PD indirect response modeling of sVEGFR2 plasma concentrations; format: in vivo, human; conditions: HCC patients, following treatment, mean baseline 15.7 µg/L
hepatocellular carcinoma [2] = conditions: phase III, HCC patients, compared to sorafenib; cited from earlier work
[3] = Hematological toxicities in the phase II pilot study; format: in vivo, human; conditions: HCC patients, 37.5 mg q.d.
hepatocellular carcinoma [4] = conditions: 50 mg q.d. in 4/2 weeks schedule, advanced HCC; cited from earlier work
hepatocellular carcinoma [5] = test: Time-to-tumor progression in HCC patients; format: in vivo, human; conditions: 37.5 mg q.d. with TACE (doxorubicin)

Compound	potency relative to parent drug (VEGFR)	Q/Fperipheral, intercompartmental clearance (RSE%) ([1]; fixed to literature value)	V2/Fperipheral, peripheral volume of distribution (RSE%) ([1]; fixed to literature value)	fb, bound fraction to plasma protein (plasma protein)	HCC tumor volumes under treatment (HCC tumors)	ka, first-order absorption rate constant (RSE%) ([1]; fixed to literature value)	fM, fraction of drug metabolized into the active metabolite SU12662 ([1]; fixed)	observed plasma concentrations of sVEGFR2 (sVEGFR2)	primary overall survival endpoint (hepatocellular carcinoma [2])	toxicities (hepatocellular carcinoma [2])	hematological toxicities [3]	median TTP (hepatocellular carcinoma [4]) [months]	median observed TTP (hepatocellular carcinoma [5])
CCNCCNC(=O)c1c(C)[nH]c(/C=C2\C(=O)Nc3ccc(F)cc32)c1C [SU12662]	equipotent to the parent drug	27.7 (26) L/h	345 (22) L	0.95	–	–	–	–	–	–	–	–	–
CCN(CC)CCNC(=O)c1c(C)[nH]c(/C=C2\C(=O)Nc3ccc(F)cc32)c1C [Sunitinib, Sunitinib malate]	–	6.37 (18) L/h	588 (8.7) L	0.9	remained relatively unchanged compared to their baseline values	0.195 (6.8) 1/h	0.21	gradually decreased over time	failed its primary OS endpoint	more frequent toxicities than sorafenib	absence of hematological toxicities	5.3	7 months and 8 months
